The results in this text go back to US20220120736A1, “METHODS AND ASSAYS FOR MODULATING GENE TRANSCRIPTION BY MODULATING CONDENSATES” (Whitehead Institute for Biomedical Research, priority 2018, published 2022).

SMILES strings stand for the structures.

The target in test [1] is T1, OCT4 (FKBP-tagged) (Mus musculus, UniProt P20263+Q8C7D2).
T1 construct: an ESC line bearing endogenous knock-in of DNA encoding the FKBP protein fused to OCT4; HA (C); endogenous in cells; host or cells: V6.5 mouse ES cells (Med1-mEGFP background), homozygous Oct4-FKBP knock-in
Put plainly: ChIP-seq after OCT4 degradation in OCT4-FKBP ESCs. It is filed as cell-based. The conditions noted are these: dTag 24 hours versus DMSO. Here is the method: mES were grown to 80% confluence in 2i media. 1% formaldehyde in PBS was used for crosslinking of cells for 15 minutes, followed by quenching with Glycine at a final concentration of 125 mM on ice. Cells were washed with cold PBS and harvested by scraping cells in cold PBS. Collected cells were pelleted at 1000 g for 3 minutes at 4° C., flash frozen in liquid nitrogen and stored at −80° C. All buffers contained freshly prepared cOmplete protease inhibitors (Roche, 11873580001). […] The pellet was resuspended in sonication buffer (20 mM Tris-HCl pH 8.0, 150 mM NaCl, 2 mM EDTA pH 8.0, 0.1% SDS, and 1% Triton X-100, 1 3 protease inhibitors) and then sonicated on a Misonix 3000 sonicator for 10 cycles at 30 s each on ice (18-21 W) with 60 s on ice between cycles. Sonicated lysates were cleared once by centrifugation at 16,000 rcf. for 10 minutes at 4° C. Input material was reserved and the remainder was incubated overnight at 4° C. with magnetic beads bound with antibody (Table S4) to enrich for DNA fragments bound by the indicated factor. […]
ChIP-Seq data were aligned to the mm9 version of the mouse reference genome using bowtie with parameters -k 1 -m 1 -best and -l set to read length. […]

Test [2] addresses T1, OCT4 (FKBP-tagged). Nature of the test: Western blot after OCT4 degradation in OCT4 degron line. Type of test: cell-based. To be noted: dTag versus DMSO. Here is the method: Cells were lysed in Cell Lytic M (Sigma-Aldrich C2978) with protease inhibitors (Roche, 11697498001). Lysate was run on a 3%-8% Tris-acetate gel or 10% Bis-Tris gel or 3-8% Bis-Tris gels at 80 V for ˜2 hrs, followed by 120 V until dye front reached the end of the gel. Protein was then wet transferred to a 0.45 μm PVDF membrane (Millipore, IPVH00010) in ice-cold transfer buffer (25 mM Tris, 192 mM glycine, 10% methanol) at 300 mA for 2 hours at 4° C. After transfer the membrane was blocked with 5% non-fat milk in TBS for 1 hour at room temperature, shaking. Membrane was then incubated with 1:1,000 of the indicated antibody (Table S4) diluted in 5% non-fat milk in TBST and incubated overnight at 4° C., with shaking. In the morning, the membrane was washed three times with TBST for 5 minutes at room temperature shaking for each wash. Membrane was incubated with 1:5,000 secondary antibodies for 1 hr at RT and washed three times in TBST for 5 minutes. Membranes were developed with ECL substrate (Thermo Scientific, 34080) and imaged using a CCD camera or exposed using film or with high sensitivity ECL.
The CRISPR/Cas9 system was used to genetically engineer ESC lines. Target-specific oligonucleotides were cloned into a plasmid carrying a codon-optimized version of Cas9 with GFP (gift from R. Jaenisch). […]
A general note: In western blotting, separated proteins are transferred to a membrane and probed.

T1 sequence (P20263 with tags, fused parts or gaps): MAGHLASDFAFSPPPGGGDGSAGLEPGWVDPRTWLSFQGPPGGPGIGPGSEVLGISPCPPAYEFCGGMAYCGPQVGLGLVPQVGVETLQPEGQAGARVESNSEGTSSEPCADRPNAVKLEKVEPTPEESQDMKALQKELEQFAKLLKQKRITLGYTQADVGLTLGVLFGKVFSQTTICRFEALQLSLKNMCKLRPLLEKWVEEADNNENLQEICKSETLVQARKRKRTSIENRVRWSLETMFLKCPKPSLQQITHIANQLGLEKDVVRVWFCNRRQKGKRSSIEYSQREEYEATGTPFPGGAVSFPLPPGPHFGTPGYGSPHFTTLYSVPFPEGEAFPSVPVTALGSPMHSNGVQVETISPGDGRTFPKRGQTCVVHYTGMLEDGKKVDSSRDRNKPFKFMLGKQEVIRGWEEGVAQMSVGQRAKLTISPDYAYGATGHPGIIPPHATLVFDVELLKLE
T1 sequence (Q8C7D2 whole entry, the tested form may be a part): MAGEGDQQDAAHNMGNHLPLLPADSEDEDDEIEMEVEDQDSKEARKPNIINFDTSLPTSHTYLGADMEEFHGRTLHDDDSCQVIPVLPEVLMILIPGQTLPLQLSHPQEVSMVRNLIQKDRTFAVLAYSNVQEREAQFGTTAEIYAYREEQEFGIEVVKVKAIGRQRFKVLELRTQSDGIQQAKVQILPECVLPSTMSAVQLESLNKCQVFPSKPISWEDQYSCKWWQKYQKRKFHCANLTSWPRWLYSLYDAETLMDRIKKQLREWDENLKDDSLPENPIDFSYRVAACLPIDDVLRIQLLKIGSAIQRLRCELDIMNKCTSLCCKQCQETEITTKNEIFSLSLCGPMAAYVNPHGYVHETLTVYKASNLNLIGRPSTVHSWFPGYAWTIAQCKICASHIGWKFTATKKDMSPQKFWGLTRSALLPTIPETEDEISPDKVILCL
T1 sequence (Q3U1J4 whole entry partner, the tested form may be a part): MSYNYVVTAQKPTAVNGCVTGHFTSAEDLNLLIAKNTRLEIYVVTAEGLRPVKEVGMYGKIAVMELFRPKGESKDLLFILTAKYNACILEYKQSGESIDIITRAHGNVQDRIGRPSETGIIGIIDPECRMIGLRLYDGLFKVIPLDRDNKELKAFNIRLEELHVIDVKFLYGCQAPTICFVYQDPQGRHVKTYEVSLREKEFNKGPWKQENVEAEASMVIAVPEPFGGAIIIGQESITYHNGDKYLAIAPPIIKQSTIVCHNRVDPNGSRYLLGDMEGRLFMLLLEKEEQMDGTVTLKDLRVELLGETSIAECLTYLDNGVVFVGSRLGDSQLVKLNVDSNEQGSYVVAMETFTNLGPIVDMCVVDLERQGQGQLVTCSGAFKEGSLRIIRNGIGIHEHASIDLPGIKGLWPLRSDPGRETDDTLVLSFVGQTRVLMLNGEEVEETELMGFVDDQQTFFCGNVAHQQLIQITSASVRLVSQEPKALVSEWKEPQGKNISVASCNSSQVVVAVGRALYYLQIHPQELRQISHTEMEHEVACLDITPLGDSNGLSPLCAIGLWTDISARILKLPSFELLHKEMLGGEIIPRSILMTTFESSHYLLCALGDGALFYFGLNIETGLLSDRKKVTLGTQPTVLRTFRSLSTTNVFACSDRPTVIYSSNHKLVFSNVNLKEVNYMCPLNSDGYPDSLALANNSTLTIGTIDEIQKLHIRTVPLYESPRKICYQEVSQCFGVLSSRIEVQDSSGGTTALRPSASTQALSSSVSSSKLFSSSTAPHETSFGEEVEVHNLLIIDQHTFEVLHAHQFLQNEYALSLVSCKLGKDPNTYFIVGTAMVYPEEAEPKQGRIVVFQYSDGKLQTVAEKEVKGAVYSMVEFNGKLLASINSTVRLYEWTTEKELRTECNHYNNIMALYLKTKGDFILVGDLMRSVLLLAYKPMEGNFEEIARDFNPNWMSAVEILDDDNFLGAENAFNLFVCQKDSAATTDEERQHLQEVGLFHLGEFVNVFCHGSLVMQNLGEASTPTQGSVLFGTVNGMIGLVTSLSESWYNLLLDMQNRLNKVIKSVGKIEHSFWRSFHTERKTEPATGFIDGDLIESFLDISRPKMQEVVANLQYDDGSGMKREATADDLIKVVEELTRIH

For the compound `CC[C@H](C(=O)N1CCCC[C@H]1C(=O)O[C@H](CCc1ccc(OC)c(OC)c1)c1ccccc1OCC(=O)NCCCCCCCCNc1ccc2c(c1)C(=O)N(C1CCC(=O)NC1=O)C2=O)c1cc(OC)c(OC)c(OC)c1` (stereo partly drawn) [dTag], the “OCT4 and MED1 occupancy at enhancers (SEs versus TEs)” value in test [1] was “reduction of OCT4 and MEM occupancy at enhancers, with the most profound effects occurring at SEs”. Further, in test [2], the MED1 protein levels result is on record as “did not affect MED1 levels” and the OCT4 protein levels result is listed as “reduced OCT4 protein levels”.
